From patent publication US20220112187A1, “PYRAZOLOPYRIDINE AMINE COMPOUNDS FOR THE TREATMENT OF AUTOIMMUNE DISEASE” (Hoffmann-La Roche Inc., priority 2018, published 2022)

The compounds below were run against T1, human TLR9 (Homo sapiens, UniProt Q9NR96) (assay: HEK293-Blue-hTLR-9 cells assay (SEAP reporter, ODN2006 stimulation)). Details: HEK293-Blue-hTLR9 cells, ODN2006 ligand, 20 hrs incubation.
T1 sequence (Q9NR96 26-1032): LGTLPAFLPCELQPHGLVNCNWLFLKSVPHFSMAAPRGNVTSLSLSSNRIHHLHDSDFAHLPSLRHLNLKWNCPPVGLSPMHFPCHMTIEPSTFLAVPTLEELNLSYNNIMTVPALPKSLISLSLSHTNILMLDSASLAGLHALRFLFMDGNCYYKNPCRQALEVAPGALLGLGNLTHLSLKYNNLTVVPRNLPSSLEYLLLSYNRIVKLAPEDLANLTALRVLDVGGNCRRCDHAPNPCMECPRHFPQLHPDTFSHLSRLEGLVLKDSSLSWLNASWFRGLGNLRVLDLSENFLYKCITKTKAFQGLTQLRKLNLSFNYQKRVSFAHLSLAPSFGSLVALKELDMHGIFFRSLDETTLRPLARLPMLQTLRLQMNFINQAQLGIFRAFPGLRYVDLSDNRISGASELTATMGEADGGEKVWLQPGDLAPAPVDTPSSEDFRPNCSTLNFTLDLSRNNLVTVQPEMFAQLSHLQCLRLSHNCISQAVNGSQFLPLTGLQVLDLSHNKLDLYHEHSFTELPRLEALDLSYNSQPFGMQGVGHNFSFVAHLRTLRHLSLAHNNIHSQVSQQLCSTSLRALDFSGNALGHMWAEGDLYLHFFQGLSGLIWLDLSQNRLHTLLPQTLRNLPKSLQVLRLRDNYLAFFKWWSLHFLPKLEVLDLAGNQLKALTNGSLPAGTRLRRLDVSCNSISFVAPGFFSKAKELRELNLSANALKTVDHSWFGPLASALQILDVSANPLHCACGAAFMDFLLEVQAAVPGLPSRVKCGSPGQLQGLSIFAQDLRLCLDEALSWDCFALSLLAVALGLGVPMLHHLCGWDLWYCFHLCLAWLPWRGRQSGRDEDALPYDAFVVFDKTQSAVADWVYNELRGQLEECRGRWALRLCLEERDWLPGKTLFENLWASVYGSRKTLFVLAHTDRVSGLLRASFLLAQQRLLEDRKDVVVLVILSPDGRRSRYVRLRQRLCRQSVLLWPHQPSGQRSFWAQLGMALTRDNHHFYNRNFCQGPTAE
Type: cell-based
Source text: A stable HEK293-Blue-hTLR-9 cell line was purchased from InvivoGen (Cat. #: hkb-htlr9, San Diego, Calif., USA). These cells were originally designed for studying the stimulation of human TLR9 by monitoring the activation of NF-κB. A SEAP (secreted embryonic alkaline phosphatase) reporter gene was placed under the control of the IFN-β minimal promoter fused to five NF-κB and AP-1-binding sites. The SEAP was induced by activating NF-κB and AP-1 via stimulating HEK-Blue hTLR9 cells with TLR9 ligands. Therefore the reporter expression was declined by TLR9 antagonist under the stimulation of a ligand, such as ODN2006 (Cat. #: tlr1-2006-1, Invivogen, San Diego, Calif., USA), for incubation of 20 hrs. The cell culture supernatant SEAP reporter activity was determined using QUANTI-Blue™ kit (Cat. #: rep-qb1, Invivogen, San Diego, Calif., USA) at a wavelength of 640 nm, a detection medium that turns purple or blue in the presence of alkaline phosphatase.
HEK293-Blue-hTLR9 cells were incubated at a density of 250,000˜450,000 cells/mL in a volume of 170 μL in a 96-well plate in Dulbecco's Modified Eagle's medium (DMEM) containing 4.5 g/L glucose, 50 U/mL penicillin, […], […], 2 mM L-glutamine, 10% (v/v) heat-inactivated fetal bovine serum with addition of 20 μL test compound in a serial dilution in the presence of final DMSO at 1% and 10 μL of 20 uM ODN2006 in above DMEM, perform incubation under 37° C. in a CO2 incubator for 20 hrs. Then 20 μL of the supernatant from each well was incubated with 180 μL Quanti-blue substrate solution at 37° C. for 2 hrs and the absorbance was read at 620-655 nm using a spectrophotorneter. The signalling pathway that TLR9 activation leads to downstream NF-κB activation has been widely accepted, and therefore similar reporter assay was modified for evaluating TLR9 antagonist.

Row | Structure (SMILES) | IC50
1 | C[C@@H]1CN(c2ccc(C#N)n3nccc23)C[C@H](CN2CCC3(CCCNC3)C2)O1 (stereo partly drawn) [Example 25, 4-[(2S,6R)-2-(2,9-diazaspiro[4.5]decan-2-ylmethyl)-6-methyl-morpholin-4-yl]pyrazolo[1,5-a]pyridine-7-carbonitrile] | 0.088 µM
2 | C[C@@H]1CN(c2ccc(C#N)n3nccc23)C[C@H](CN2CCC3(CCCNC3)CC2)O1 [Example 27, 4-[(2S,6R)-2-(2,9-diazaspiro[5.5]undecan-9-ylmethyl)-6-methyl-morpholin-4-yl]pyrazolo[1,5-a]pyridine-7-carbonitrile] | 0.065 µM
3 | CC1CN(C[C@H]2CN(c3ccc(C#N)n4nccc34)C[C@@H](C)O2)CCN1 (stereo partly drawn) [Example 28, 4-[(2R,6S)-2-methyl-6-[(3-methylpiperazin-1-yl)methyl]morpholin-4-yl]pyrazolo[1,5-a]pyridine-7-carbonitrile] | 14 µM
4 | C[C@@H]1CN(c2ccc(C#N)n3nccc23)C[C@H](CN2CCC(C)(N)CC2)O1 [Example 29, 4-[(2S,6R)-2-[(4-amino-4-methyl-1-piperidyl)methyl]-6-methyl-morpholin-4-yl]pyrazolo[1,5-a]pyridine-7-carbonitrile] | 0.22 µM
5 | C[C@@H]1CN(c2ccc(C#N)n3nccc23)C[C@H](CN2CC3CCC2CN3)O1 (stereo partly drawn) [Example 30, 4-[(2S,6R)-2-(2,5-diazabicyclo[2.2.2]octan-2-ylmethyl)-6-methyl-morpholin-4-yl]pyrazolo[1,5-a]pyridine-7-carbonitrile] | 3.2 µM
6 | C[C@@H]1CN(c2ccc(C#N)n3nccc23)C[C@H](CN2CC3CCC(C2)N3)O1 [Example 31, 4-[(2S,6R)-2-(3,8-diazabicyclo[3.2.1]octan-3-ylmethyl)-6-methyl-morpholin-4-yl]pyrazolo[1,5-a]pyridine-7-carbonitrile] | 10 µM
7 | C[C@@H]1CN(c2ccc(C#N)n3nccc23)C[C@H](CN2CCCC3(CCNCC3)C2)O1 [Example 32, 4-[(2S,6R)-2-(2,9-diazaspiro[5.5]undecan-2-ylmethyl)-6-methyl-morpholin-4-yl]pyrazolo[1,5-a]pyridine-7-carbonitrile] | 0.065 µM
8 | C[C@@H]1CN(c2ccc(C#N)n3nccc23)C[C@H](CN2CCCC3(CNC3)C2)O1 [Example 33, 4-[(2S,6R)-2-(2,6-diazaspiro[3.5]nonan-6-ylmethyl)-6-methyl-morpholin-4-yl]pyrazolo[1,5-a]pyridine-7-carbonitrile] | 0.12 µM
9 | C[C@@H]1CN(c2ccc(C#N)n3nccc23)C[C@H](CN2CCC(N)C(F)(F)C2)O1 (stereo partly drawn) [Example 34, 4-[(2S,6R)-2-[(4-amino-3,3-difluoro-1-piperidyl)methyl]-6-methyl-morpholin-4-yl]pyrazolo[1,5-a]pyridine-7-carbonitrile] | 99 µM
10 | C[C@@H]1CN(c2ccc(C#N)n3nccc23)C[C@H](CN2CC(N)C(F)(F)C2)O1 (stereo partly drawn) [Example 35, 4-[(2S,6R)-2-[(4-amino-3,3-difluoro-pyrrolidin-1-yl)methyl]-6-methyl-morpholin-4-yl]pyrazolo[1,5-a]pyridine-7-carbonitrile] | > 100 µM
11 | C[C@@H]1CN(c2ccc(C#N)n3nccc23)C[C@H](CN2CC3CCC(C2)C3N)O1 (stereo partly drawn) [Example 36, 4-[(2S,6R)-2-[(8-amino-3-azabicyclo[3.2.1]octan-3-yl)methyl]-6-methyl-morpholin-4-yl]pyrazolo[1,5-a]pyridine-7-carbonitrile] | 0.52 µM
12 | C[C@@H]1CN(c2ccc(C#N)n3nccc23)C[C@H](CN2C3CCC2CC(N)C3)O1 (stereo partly drawn) [Example 37, 4-[(2S,6R)-2-[(3-amino-8-azabicyclo[3.2.1]octan-8-yl)methyl]-6-methyl-morpholin-4-yl]pyrazolo[1,5-a]pyridine-7-carbonitrile] | 0.078 µM
13 | C[C@@H]1CN(c2ccc(C#N)n3nccc23)C[C@H](CN2CCN[C@H](c3ccccc3)C2)O1 [Example 38, 4-[(2R,6S)-2-methyl-6-[[(3R)-3-phenylpiperazin-1-yl]methyl]morpholin-4-yl]pyrazolo[1,5-a]pyridine-7-carbonitrile] | 1.9 µM
14 | C[C@@H]1CN(c2ccc(C#N)n3nccc23)C[C@H](CN2CCC(N3CCNCC3)CC2)O1 [Example 39, 4-[(2R,6S)-2-methyl-6-[(4-piperazin-1-yl-1-piperidyl)methyl]morpholin-4-yl]pyrazolo[1,5-a]pyridine-7-carbonitrile] | 0.096 µM
15 | C[C@@H]1CN(c2ccc(C#N)n3nccc23)C[C@H](CN2CCNC3(CC3)C2)O1 [Example 40, 4-[(2S,6R)-2-(4,7-diazaspiro[2.5]octan-7-ylmethyl)-6-methyl-morpholin-4-yl]pyrazolo[1,5-a]pyridine-7-carbonitrile] | 13 µM
16 | C[C@@H]1CN(c2ccc(C#N)n3nccc23)C[C@H](CN2CCC3NCCC3C2)O1 (stereo partly drawn) [Example 41, 4-[(2S,6R)-2-(1,2,3,3a,4,6,7,7a-octahydropyrrolo[3,2-c]pyridin-5-ylmethyl)-6-methyl-morpholin-4-yl]pyrazolo[1,5-a]pyridine-7-carbonitrile] | 0.14 µM
17 | C[C@@H]1CN(c2ccc(C#N)n3nccc23)C[C@H](CN2CCC3(CCCCN3)C2)O1 (stereo partly drawn) [Example 42, 4-[(2S,6R)-2-(2,6-diazaspiro[4.5]decan-2-ylmethyl)-6-methyl-morpholin-4-yl]pyrazolo[1,5-a]pyridine-7-carbonitrile] | 1.7 µM
18 | C[C@@H]1CN(c2ccc(C#N)n3nccc23)C[C@H](CN2C3CCC2CNC3)O1 [Example 43, 4-[(2S,6R)-2-(3,8-diazabicyclo[3.2.1]octan-8-ylmethyl)-6-methyl-morpholin-4-yl]pyrazolo[1,5-a]pyridine-7-carbonitrile] | 10 µM
19 | C[C@@H]1CN(c2ccc(C#N)n3nccc23)C[C@H](CN2CCCC3(CCNC3)C2)O1 (stereo partly drawn) [Example 44, 4-[(2S,6R)-2-(2,7-diazaspiro[4.5]decan-7-ylmethyl)-6-methyl-morpholin-4-yl]pyrazolo[1,5-a]pyridine-7-carbonitrile] | 0.11 µM
20 | C[C@@H]1CN(c2ccc(C#N)n3nccc23)C[C@H](CN2CC3CCCNC3C2)O1 (stereo partly drawn) [Example 45, 4-[(2S,6R)-2-(1,2,3,4,4a,5,7,7a-octahydropyrrolo[3,4-b]pyridin-6-ylmethyl)-6-methyl-morpholin-4-yl]pyrazolo[1,5-a]pyridine-7-carbonitrile] | 0.97 µM
21 | C[C@@H]1CN(c2ccc(C#N)n3nccc23)C[C@H](CN2CC3(CCCNCC3)C2)O1 [Example 46, 4-[(2S,6R)-2-(2,8-diazaspiro[3.6]decan-2-ylmethyl)-6-methyl-morpholin-4-yl]pyrazolo[1,5-a]pyridine-7-carbonitrile] | 0.14 µM
22 | C[C@@H]1CN(c2ccc(C#N)n3nccc23)C[C@H](CN2CCC3(CCCCN3)CC2)O1 [Example 47, 4-[(2S,6R)-2-(1,9-diazaspiro[5.5]undecan-9-ylmethyl)-6-methyl-morpholin-4-yl]pyrazolo[1,5-a]pyridine-7-carbonitrile] | 0.19 µM
23 | C[C@@H]1CN(c2ccc(C#N)n3nccc23)C[C@H](CN2CCC3(CCN3)CC2)O1 [Example 48, 4-[(2S,6R)-2-(1,7-diazaspiro[3.5]nonan-7-ylmethyl)-6-methyl-morpholin-4-yl]pyrazolo[1,5-a]pyridine-7-carbonitrile] | 0.25 µM
